Assay results published in PubChem BioAssay (NCI).
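Each compound was tested at five concentrations against cells in 96-well plates for 48 hours. GI50 marks 50% less growth. TGI marks complete inhibition of growth.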

What was measured:
Assay in all cases: NCI tumour cell line growth inhibition, 48 h
SF-295 CNS = tested on: SF-295 CNS
SF-539 CNS = tested on: SF-539 CNS
SF-268 CNS = tested on: SF-268 CNS
HS 578T breast = tested on: HS 578T breast
CAKI-1 renal = tested on: CAKI-1 renal
SR leukemia = tested on: SR leukemia
UACC-257 melanoma = tested on: UACC-257 melanoma
OVCAR-5 ovarian = tested on: OVCAR-5 ovarian
A498 renal = tested on: A498 renal
KM12 colon = tested on: KM12 colon
SK-MEL-5 melanoma = tested on: SK-MEL-5 melanoma
MDA-MB-435 = tested on: MDA-MB-435
OVCAR-8 ovarian = tested on: OVCAR-8 ovarian
SW-620 colon = tested on: SW-620 colon
MALME-3M melanoma = tested on: MALME-3M melanoma
NCI-H23 lung = tested on: NCI-H23 lung
M14 melanoma = tested on: M14 melanoma
HT29 colon = tested on: HT29 colon
HOP-62 NSCLC = tested on: HOP-62 NSCLC
DU-145 prostate = tested on: DU-145 prostate
HOP-92 NSCLC = tested on: HOP-92 NSCLC
MOLT-4 leukemia = tested on: MOLT-4 leukemia
HCT-15 colon = tested on: HCT-15 colon
NCI-H460 lung = tested on: NCI-H460 lung
ACHN renal = tested on: ACHN renal
HCC-2998 colon = tested on: HCC-2998 colon
RXF 393 renal = tested on: RXF 393 renal
SK-MEL-2 melanoma = tested on: SK-MEL-2 melanoma
SK-MEL-28 melanoma = tested on: SK-MEL-28 melanoma

COc1ccc2[nH]cc(-c3cc(N)n4nc(-c5cn(C)c6ccccc56)cc4n3)c2c1
GI50 (SF-295 CNS): 1.78 µM
TGI (SF-295 CNS): 3.34 µM
GI50 (SF-539 CNS): 1.61 µM
TGI (SF-539 CNS): 3.01 µM
GI50 (SF-268 CNS): 1.94 µM
TGI (SF-268 CNS): 4.05 µM
GI50 (HS 578T breast): 2.05 µM
TGI (HS 578T breast): 4.83 µM
GI50 (CAKI-1 renal): 1.73 µM
TGI (CAKI-1 renal): 3.12 µM
GI50 (SR leukemia): 0.343 µM
TGI (SR leukemia): 1.73 µM
GI50 (UACC-257 melanoma): 1.68 µM
TGI (UACC-257 melanoma): 3.1 µM
GI50 (OVCAR-5 ovarian): 1.73 µM
TGI (OVCAR-5 ovarian): 3.27 µM
GI50 (A498 renal): 1.73 µM
TGI (A498 renal): 3.23 µM
GI50 (KM12 colon): 2.03 µM
TGI (KM12 colon): 4.22 µM
GI50 (SK-MEL-5 melanoma): 1.76 µM
TGI (SK-MEL-5 melanoma): 3.14 µM
GI50 (MDA-MB-435): 1.77 µM
TGI (MDA-MB-435): 3.23 µM
GI50 (OVCAR-8 ovarian): 1.75 µM
TGI (OVCAR-8 ovarian): 3.27 µM
GI50 (SW-620 colon): 1.81 µM
TGI (SW-620 colon): 3.47 µM
GI50 (MALME-3M melanoma): 1.74 µM
TGI (MALME-3M melanoma): 3.14 µM
GI50 (NCI-H23 lung): 1.97 µM
TGI (NCI-H23 lung): 3.95 µM
GI50 (M14 melanoma): 1.79 µM
TGI (M14 melanoma): 3.93 µM
GI50 (HT29 colon): 1.8 µM
TGI (HT29 colon): 3.22 µM
GI50 (HOP-62 NSCLC): 1.89 µM
TGI (HOP-62 NSCLC): 3.76 µM
GI50 (DU-145 prostate): 1.82 µM
TGI (DU-145 prostate): 3.52 µM
GI50 (HOP-92 NSCLC): 1.68 µM
TGI (HOP-92 NSCLC): 3.24 µM
GI50 (MOLT-4 leukemia): 1.59 µM
TGI (MOLT-4 leukemia): 4.38 µM
GI50 (HCT-15 colon): 1.23 µM
TGI (HCT-15 colon): 2.52 µM
GI50 (NCI-H460 lung): 1.9 µM
TGI (NCI-H460 lung): 3.62 µM
GI50 (ACHN renal): 1.87 µM
TGI (ACHN renal): 3.43 µM
GI50 (HCC-2998 colon): 1.94 µM
TGI (HCC-2998 colon): 3.38 µM
GI50 (RXF 393 renal): 1.74 µM
TGI (RXF 393 renal): 3.39 µM
GI50 (SK-MEL-2 melanoma): 1.67 µM
TGI (SK-MEL-2 melanoma): 3.13 µM
GI50 (SK-MEL-28 melanoma): 1.78 µM
TGI (SK-MEL-28 melanoma): 3.23 µM
